Source: PubChem BioAssay (NCI)
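Compound exposure: 48 hours, 5 concentrations, 96-well plates. TGI: total growth inhibition.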

Experiments:
Experiment in all cases: growth of human tumour cells (NCI), 48 h
SF-539 CNS = system: SF-539 CNS
786-0 renal = system: 786-0 renal
NCI-H522 lung = system: NCI-H522 lung
T-47D breast = system: T-47D breast
CAKI-1 renal = system: CAKI-1 renal
OVCAR-4 ovarian = system: OVCAR-4 ovarian
DU-145 prostate = system: DU-145 prostate
HS 578T breast = system: HS 578T breast
HL-60(TB) leukemia = system: HL-60(TB) leukemia
NCI-H23 lung = system: NCI-H23 lung
HOP-62 NSCLC = system: HOP-62 NSCLC
SK-MEL-5 melanoma = system: SK-MEL-5 melanoma
SF-295 CNS = system: SF-295 CNS
OVCAR-5 ovarian = system: OVCAR-5 ovarian
SK-OV-3 ovarian = system: SK-OV-3 ovarian
HCT-116 colon = system: HCT-116 colon
PC-3 prostate = system: PC-3 prostate
SNB-75 CNS = system: SNB-75 CNS
SR leukemia = system: SR leukemia
IGROV1 ovarian = system: IGROV1 ovarian
ACHN renal = system: ACHN renal
UACC-62 melanoma = system: UACC-62 melanoma
EKVX NSCLC = system: EKVX NSCLC
M14 melanoma = system: M14 melanoma
K-562 leukemia = system: K-562 leukemia
CCRF-CEM leukemia = system: CCRF-CEM leukemia
MDA-MB-435 = system: MDA-MB-435
SK-MEL-28 melanoma = system: SK-MEL-28 melanoma
MDA-MB-231 breast = system: MDA-MB-231 breast
SNB-19 CNS = system: SNB-19 CNS
SF-268 CNS = system: SF-268 CNS
KM12 colon = system: KM12 colon
HOP-92 NSCLC = system: HOP-92 NSCLC
MDA-N = system: MDA-N
MALME-3M melanoma = system: MALME-3M melanoma
LOX IMVI melanoma = system: LOX IMVI melanoma
TK-10 renal = system: TK-10 renal
OVCAR-3 ovarian = system: OVCAR-3 ovarian
MCF7 breast = system: MCF7 breast
COLO 205 colon = system: COLO 205 colon
SK-MEL-2 melanoma = system: SK-MEL-2 melanoma
NCI-H460 lung = system: NCI-H460 lung
NCI-H226 lung = system: NCI-H226 lung
HT29 colon = system: HT29 colon
OVCAR-8 ovarian = system: OVCAR-8 ovarian
BT-549 breast = system: BT-549 breast
U251 CNS = system: U251 CNS
SN12C renal = system: SN12C renal
NCI/ADR-RES ovarian = system: NCI/ADR-RES ovarian
A498 renal = system: A498 renal
UO-31 renal = system: UO-31 renal
HCT-15 colon = system: HCT-15 colon
MOLT-4 leukemia = system: MOLT-4 leukemia
HCC-2998 colon = system: HCC-2998 colon
A549 NSCLC = system: A549 NSCLC
SW-620 colon = system: SW-620 colon
UACC-257 melanoma = system: UACC-257 melanoma
RXF 393 renal = system: RXF 393 renal
RPMI-8226 leukemia = system: RPMI-8226 leukemia

O=C(C=P(c1ccccc1)(c1ccccc1)c1ccccc1)c1ccccc1-c1ccccc1C(=O)C=P(c1ccccc1)(c1ccccc1)c1ccccc1
TGI (SF-539 CNS): 0.384 µM
TGI (786-0 renal): 1.25 µM
TGI (NCI-H522 lung): 1.78 µM
TGI (T-47D breast): 2.08 µM
TGI (CAKI-1 renal): 1.1 µM
TGI (OVCAR-4 ovarian): 1.63 µM
TGI (DU-145 prostate): 1.28 µM
TGI (HS 578T breast): 0.317 µM
TGI (HL-60(TB) leukemia): < 0.0195 µM
TGI (NCI-H23 lung): 0.0899 µM
TGI (HOP-62 NSCLC): 0.507 µM
TGI (SK-MEL-5 melanoma): 0.0263 µM
TGI (SF-295 CNS): 0.0496 µM
TGI (OVCAR-5 ovarian): 0.585 µM
TGI (SK-OV-3 ovarian): 0.366 µM
TGI (HCT-116 colon): 0.259 µM
TGI (PC-3 prostate): 1.23 µM
TGI (SNB-75 CNS): 0.115 µM
TGI (SR leukemia): 0.0667 µM
TGI (IGROV1 ovarian): 1.36 µM
TGI (ACHN renal): 1.12 µM
TGI (UACC-62 melanoma): 1.33 µM
TGI (EKVX NSCLC): 0.91 µM
TGI (M14 melanoma): 1.42 µM
TGI (K-562 leukemia): 0.0905 µM
TGI (CCRF-CEM leukemia): 0.843 µM
TGI (MDA-MB-435): 1.11 µM
TGI (SK-MEL-28 melanoma): 2.03 µM
TGI (MDA-MB-231 breast): 0.158 µM
TGI (SNB-19 CNS): 1.58 µM
TGI (SF-268 CNS): 1.61 µM
TGI (KM12 colon): 0.02 µM
TGI (HOP-92 NSCLC): 0.0544 µM
TGI (MDA-N): 1.1 µM
TGI (MALME-3M melanoma): < 0.0208 µM
TGI (LOX IMVI melanoma): 0.0716 µM
TGI (TK-10 renal): 0.182 µM
TGI (OVCAR-3 ovarian): < 0.012 µM
TGI (MCF7 breast): 0.0395 µM
TGI (COLO 205 colon): 0.0222 µM

COC(=O)c1sc2c(c1C(=O)OC)C(=Nc1ccc(OC)cc1)SC2=Nc1ccc(OC)cc1
TGI (SF-539 CNS): 0.889 µM
TGI (786-0 renal): 1.33 µM
TGI (SK-MEL-2 melanoma): 1.48 µM
TGI (NCI-H522 lung): 2.45 µM
TGI (CAKI-1 renal): 5.84 µM
TGI (NCI-H460 lung): 2.79 µM
TGI (OVCAR-4 ovarian): 2.83 µM
TGI (DU-145 prostate): 1.69 µM
TGI (NCI-H226 lung): 3.55 µM
TGI (HL-60(TB) leukemia): 0.552 µM
TGI (NCI-H23 lung): 3.12 µM
TGI (HT29 colon): 1.73 µM
TGI (HOP-62 NSCLC): 2.23 µM
TGI (SK-MEL-5 melanoma): 2.54 µM
TGI (SF-295 CNS): 3.42 µM
TGI (OVCAR-8 ovarian): 2.32 µM
TGI (BT-549 breast): 3.43 µM
TGI (OVCAR-5 ovarian): 3.55 µM
TGI (SK-OV-3 ovarian): 3.37 µM
TGI (HCT-116 colon): 1.58 µM
TGI (PC-3 prostate): 1.04 µM
TGI (SNB-75 CNS): 1.24 µM
TGI (U251 CNS): 1.03 µM
TGI (SR leukemia): > 100 µM
TGI (IGROV1 ovarian): 2.24 µM
TGI (SN12C renal): 1.94 µM
TGI (ACHN renal): 2.51 µM
TGI (UACC-62 melanoma): 2.84 µM
TGI (EKVX NSCLC): 3.02 µM
TGI (NCI/ADR-RES ovarian): 3.47 µM
TGI (M14 melanoma): 3 µM
TGI (CCRF-CEM leukemia): 0.289 µM
TGI (MDA-MB-435): 1.94 µM
TGI (A498 renal): 3.01 µM
TGI (UO-31 renal): 2.11 µM
TGI (HCT-15 colon): 1.66 µM
TGI (SK-MEL-28 melanoma): 2.85 µM
TGI (MDA-MB-231 breast): 2.35 µM
TGI (SNB-19 CNS): 2.88 µM
TGI (SF-268 CNS): 3.61 µM
TGI (KM12 colon): 3.03 µM
TGI (MOLT-4 leukemia): 0.494 µM
TGI (HOP-92 NSCLC): 2.91 µM
TGI (MDA-N): 2.52 µM
TGI (MALME-3M melanoma): 3.65 µM
TGI (LOX IMVI melanoma): 0.449 µM
TGI (TK-10 renal): 3.01 µM
TGI (HCC-2998 colon): 3.17 µM
TGI (A549 NSCLC): 2.68 µM
TGI (OVCAR-3 ovarian): 1.32 µM
TGI (MCF7 breast): 2.47 µM
TGI (SW-620 colon): 0.7 µM
TGI (COLO 205 colon): 1.31 µM
TGI (UACC-257 melanoma): 2.75 µM
TGI (RXF 393 renal): 1.72 µM

CCC(C)C(NC(=O)c1cccc2c(=O)c3ccccc3[nH]c12)C(=O)O (configuration not stated)
TGI (786-0 renal): > 100 µM
TGI (SK-MEL-2 melanoma): > 100 µM
TGI (NCI-H522 lung): > 100 µM
TGI (OVCAR-4 ovarian): > 100 µM
TGI (DU-145 prostate): > 100 µM
TGI (HS 578T breast): > 100 µM
TGI (NCI-H226 lung): > 100 µM
TGI (NCI-H23 lung): > 100 µM
TGI (HT29 colon): > 100 µM
TGI (HOP-62 NSCLC): > 100 µM
TGI (SK-MEL-5 melanoma): > 100 µM
TGI (SF-295 CNS): > 100 µM
TGI (OVCAR-8 ovarian): > 100 µM
TGI (OVCAR-5 ovarian): > 100 µM
TGI (SK-OV-3 ovarian): > 100 µM
TGI (HCT-116 colon): > 100 µM
TGI (PC-3 prostate): > 100 µM
TGI (SNB-75 CNS): > 100 µM
TGI (U251 CNS): > 100 µM
TGI (SR leukemia): > 100 µM
TGI (IGROV1 ovarian): > 100 µM
TGI (SN12C renal): > 100 µM
TGI (ACHN renal): > 100 µM
TGI (UACC-62 melanoma): > 100 µM
TGI (RPMI-8226 leukemia): > 100 µM
TGI (EKVX NSCLC): > 100 µM
TGI (NCI/ADR-RES ovarian): > 100 µM
TGI (M14 melanoma): > 100 µM
TGI (K-562 leukemia): > 100 µM
TGI (CCRF-CEM leukemia): > 100 µM
TGI (MDA-MB-435): > 100 µM
TGI (A498 renal): > 100 µM
TGI (UO-31 renal): > 100 µM
TGI (HCT-15 colon): > 100 µM
TGI (SK-MEL-28 melanoma): > 100 µM
TGI (MDA-MB-231 breast): > 100 µM
TGI (SNB-19 CNS): > 100 µM
TGI (SF-268 CNS): > 100 µM
TGI (KM12 colon): > 100 µM
TGI (MOLT-4 leukemia): > 100 µM
TGI (HOP-92 NSCLC): > 100 µM
TGI (MDA-N): > 100 µM
TGI (MALME-3M melanoma): > 100 µM
TGI (LOX IMVI melanoma): > 100 µM
TGI (TK-10 renal): > 100 µM
TGI (A549 NSCLC): > 100 µM
TGI (OVCAR-3 ovarian): > 100 µM
TGI (MCF7 breast): > 100 µM
TGI (SW-620 colon): > 100 µM
TGI (COLO 205 colon): > 100 µM

CO[C@H]1C[C@H](O[C@H]2CC[C@@]3(C)[C@H](CC[C@@H]4[C@@H]3CC[C@]3(C)[C@@H](C5=CC(=O)OC5)CC[C@]43O)C2)O[C@H](C)[C@H]1O
TGI (SF-539 CNS): 0.0138 µM
TGI (786-0 renal): < 0.0129 µM
TGI (SK-MEL-2 melanoma): 0.0478 µM
TGI (NCI-H522 lung): 0.0197 µM
TGI (CAKI-1 renal): 0.0284 µM
TGI (NCI-H460 lung): 0.0103 µM
TGI (OVCAR-4 ovarian): < 0.0131 µM
TGI (NCI-H226 lung): 0.0586 µM
TGI (NCI-H23 lung): 0.0178 µM
TGI (HT29 colon): 0.0552 µM
TGI (HOP-62 NSCLC): 0.0202 µM
TGI (SK-MEL-5 melanoma): 0.0469 µM
TGI (SF-295 CNS): 0.0555 µM
TGI (OVCAR-8 ovarian): 0.0245 µM
TGI (BT-549 breast): 0.0175 µM
TGI (OVCAR-5 ovarian): 0.0896 µM
TGI (SK-OV-3 ovarian): 0.0291 µM
TGI (HCT-116 colon): 0.0161 µM
TGI (PC-3 prostate): 0.0212 µM
TGI (SNB-75 CNS): 0.17 µM
TGI (U251 CNS): 0.0197 µM
TGI (IGROV1 ovarian): 0.113 µM
TGI (SN12C renal): 0.0111 µM
TGI (ACHN renal): 0.0101 µM
TGI (UACC-62 melanoma): 0.031 µM
TGI (RPMI-8226 leukemia): 0.0427 µM
TGI (EKVX NSCLC): 0.0148 µM
TGI (NCI/ADR-RES ovarian): 0.0472 µM
TGI (M14 melanoma): 0.0607 µM
TGI (CCRF-CEM leukemia): > 100 µM
TGI (MDA-MB-435): 0.0974 µM
TGI (A498 renal): 0.0589 µM
TGI (UO-31 renal): 0.0217 µM
TGI (HCT-15 colon): 0.0164 µM
TGI (SK-MEL-28 melanoma): 0.137 µM
TGI (MDA-MB-231 breast): 0.412 µM
TGI (SNB-19 CNS): 0.143 µM
TGI (SF-268 CNS): 0.0188 µM
TGI (KM12 colon): 0.371 µM
TGI (HOP-92 NSCLC): 0.0882 µM
TGI (MDA-N): 0.114 µM
TGI (MALME-3M melanoma): 0.0113 µM
TGI (LOX IMVI melanoma): 0.0159 µM
TGI (TK-10 renal): 0.0482 µM
TGI (HCC-2998 colon): 0.118 µM
TGI (A549 NSCLC): < 0.0118 µM
TGI (OVCAR-3 ovarian): < 0.0194 µM
TGI (MCF7 breast): 0.134 µM
TGI (SW-620 colon): 0.113 µM
TGI (COLO 205 colon): 0.235 µM
TGI (UACC-257 melanoma): 0.215 µM
TGI (RXF 393 renal): 0.0105 µM
